Data as given in the Biogen ADME set (Fang et al. 2023).
≈ marks a conversion by molar mass, not a printed value.

Settings: for aqueous solubility: pH 6.8

Row | SMILES | MDR1-MDCK efflux ratio | fraction unbound, human plasma | fraction unbound, rat plasma | intrinsic clearance, human liver microsomes | intrinsic clearance, rat liver microsomes | aqueous solubility
1 | Cc1c(F)cccc1NC(=O)CN1[C@H](Cc2ccccc2)C[C@]2(C)NC(=O)CCC[C@H]12 | 12.4 | 0.0394 | 0.0842 | 267 mL/min/kg | 1090 mL/min/kg | –
2 | CC(C)(C(=O)NCc1ccccn1)c1ccccc1 | 0.736 | – | – | ≤ 4.74 mL/min/kg | 138 mL/min/kg | 77.6 µg/mL (≈ 305 µM)
3 | CCc1nc(C(N)=O)c(Nc2ccc(N3CCC(N4CCN(C)CC4)CC3)c(OC)c2)nc1NC1CCOCC1 | 133 | – | – | 15 mL/min/kg | 14.7 mL/min/kg | 36.3 µg/mL (≈ 65.7 µM)
4 | Cc1nc2ccccc2n1CCNc1ncccn1 | – | – | – | ≤ 4.74 mL/min/kg | 299 mL/min/kg | –
5 | Nc1nn(C(=O)Cc2ccc(F)cc2)c2cccc(F)c12 | – | – | – | 16.7 mL/min/kg | 62.9 mL/min/kg | –
6 | CCCn1ccnc1CNc1nc2c(s1)c(C)nn2C | 8.95 | – | – | 6.75 mL/min/kg | 129 mL/min/kg | 31 µg/mL (≈ 107 µM)
7 | Cc1cc(C(F)(F)F)nc(N(C)Cc2c(C)noc2C)n1 | – | – | – | 91.7 mL/min/kg | 589 mL/min/kg | –
8 | NC(=O)COc1ccccc1C(=O)Nc1cccc(-c2ccc3ccccc3c2)n1 | 0.296 | – | – | 54.8 mL/min/kg | 1060 mL/min/kg | –
9 | Cc1ccc(F)c(N(C#N)Cc2nccn2C(F)F)c1 | 0.613 | – | – | 19.9 mL/min/kg | 225 mL/min/kg | 45.1 µg/mL (≈ 161 µM)
10 | CC(C)OCCS(=O)(=O)N1CCc2ccccc2CC1 | 0.666 | – | – | 134 mL/min/kg | 3140 mL/min/kg | –
11 | Cc1noc(C)c1CS(=O)(=O)Cc1cccc2c1OCCO2 | 2.46 | – | – | 39.8 mL/min/kg | 2290 mL/min/kg | 53.3 µg/mL (≈ 165 µM)
12 | CC(=O)N1CCc2c(sc(NC(=O)C(C)C)c2-c2nc3ccccc3s2)C1 | – | – | – | 24.9 mL/min/kg | 228 mL/min/kg | –
13 | Cn1nc(-c2cc(F)cc(F)c2)cc1N | 0.607 | – | – | 43.8 mL/min/kg | 48.7 mL/min/kg | –
14 | COc1cc(OC)cc(-c2nnc(SCC(=O)Nc3cccc(C(=O)O)c3)s2)c1 | 0.928 | – | – | ≤ 4.74 mL/min/kg | 48.3 mL/min/kg | 39 µg/mL (≈ 90.4 µM)
15 | O=C(Cc1ccc2ccccc2c1)NCCc1nc2ccccc2[nH]1 | 15.4 | – | – | 184 mL/min/kg | 875 mL/min/kg | 29.1 µg/mL (≈ 88.5 µM)
16 | O=C(CC[C@@H]1CCCN2CCCC[C@H]12)NCc1ncc(Cl)cn1 | 33.8 | – | – | ≤ 4.74 mL/min/kg | 37.6 mL/min/kg | –
17 | Cc1nc(CNC(=O)c2ccc(F)c(C)c2)no1 | – | – | – | ≤ 4.74 mL/min/kg | ≤ 10.7 mL/min/kg | –
18 | CC(C)=CCOc1cccc(C(=O)NN2CCOCC2)c1 | 1.29 | – | – | ≤ 4.74 mL/min/kg | 589 mL/min/kg | –
19 | Cc1cc(NC(=O)CCc2c(C)nn(C)c2C)no1 | 3.86 | – | – | ≤ 4.74 mL/min/kg | 45 mL/min/kg | 50.7 µg/mL (≈ 193 µM)
20 | COc1ccc(C(=O)c2ccc(Cl)cc2)c(OC)c1 | 0.522 | – | – | 87.4 mL/min/kg | 1750 mL/min/kg | –

Row | SMILES | MDR1-MDCK efflux ratio | fraction unbound, human plasma | fraction unbound, rat plasma | intrinsic clearance, human liver microsomes | intrinsic clearance, rat liver microsomes | aqueous solubility
21 | CC(C)(C)n1ncc(C(=O)N2CCCn3ncnc32)c1C(F)(F)F | 0.971 | – | – | 27.9 mL/min/kg | 375 mL/min/kg | 46.2 µg/mL (≈ 135 µM)
22 | O=C(Nc1ccc(C2CCCCC2)cc1)c1ccc(S(=O)(=O)NCc2cccnc2)cc1 | – | – | – | 194 mL/min/kg | 604 mL/min/kg | –
23 | O=C(Cn1ccnc1)NCc1ccccc1F | – | – | – | ≤ 4.74 mL/min/kg | ≤ 10.7 mL/min/kg | 48.8 µg/mL (≈ 209 µM)
24 | CN(CCn1cnc(C#N)c1C#N)c1ccccc1 | 0.634 | – | – | 52.4 mL/min/kg | 1060 mL/min/kg | –
25 | Cc1ncc2c(n1)CN(CCCc1nc3ccccc3o1)CC2 | 0.774 | – | – | 84.5 mL/min/kg | 309 mL/min/kg | 46.6 µg/mL (≈ 151 µM)
26 | Cc1ncsc1-c1cncc(CC2CCCN(C)C2)n1 (centres undefined) | 0.97 | – | – | 32 mL/min/kg | 108 mL/min/kg | –
27 | CC(C)Cn1cnc2c1c(=O)[nH]c(=O)n2CC(C)C | 1.96 | – | – | ≤ 4.74 mL/min/kg | 73.9 mL/min/kg | 55.3 µg/mL (≈ 209 µM)
28 | O=C(NC[C@]1(O)CCN(Cc2cscn2)C[C@H]1O)c1c[nH]cn1 | – | – | – | ≤ 4.74 mL/min/kg | 42.6 mL/min/kg | –
29 | O=C(Nc1cncc(Cl)c1Cl)c1cccc(-n2cccn2)n1 | 0.09 | – | – | 99 mL/min/kg | 149 mL/min/kg | –
30 | Cc1cc(Cl)n(-c2ccc(C#N)cc2)n1 | 0.465 | – | – | 105 mL/min/kg | 310 mL/min/kg | –
31 | CCc1ccc(-c2nccn2CC(=O)Nc2ccc(C)cc2F)nc1 | 0.725 | – | – | 32.6 mL/min/kg | 625 mL/min/kg | 28.3 µg/mL (≈ 83.5 µM)
32 | CCC1(O)CN(c2ncnc3c2c(Br)nn3C)C1 | 0.85 | – | – | ≤ 4.74 mL/min/kg | 35.2 mL/min/kg | 49.1 µg/mL (≈ 157 µM)
33 | CN(Cc1cccc(C#N)c1)C(=O)CC(C)(C)C | – | – | – | – | – | 29.9 µg/mL (≈ 123 µM)
34 | Cc1nc(C2CCN(CC(N)=O)CC2)no1 | – | – | – | ≤ 4.74 mL/min/kg | ≤ 10.7 mL/min/kg | 61.4 µg/mL (≈ 274 µM)
35 | Cn1c(-c2ccc(F)cc2)cnc1NC(=O)CCC(=O)N1CC(=O)Nc2ccccc21 | 48.2 | – | – | 40.5 mL/min/kg | 322 mL/min/kg | 61.3 µg/mL (≈ 145 µM)
36 | CC1(C)CN(C(=O)c2cscn2)CCS1(=O)=O | – | – | – | – | – | 39.9 µg/mL (≈ 145 µM)
37 | Cc1ccc(C(=O)Nc2ccccc2-c2ccccc2)o1 | 0.465 | – | – | 257 mL/min/kg | 503 mL/min/kg | 35.5 µg/mL (≈ 128 µM)
38 | Cc1nc(NCCN2C(=O)CCC2=O)c2c(C)csc2n1 | 6.04 | – | – | 8.08 mL/min/kg | 158 mL/min/kg | –
39 | O=C(NCC1CCC2(CC1)OCCO2)c1[nH]nc2c1CCCC2 | 5.92 | – | – | 6.88 mL/min/kg | 1270 mL/min/kg | –
40 | O=C(CN1CCc2ccccc21)N1CCC(c2nc3ccccc3[nH]2)CC1 | 56.1 | – | – | 112 mL/min/kg | 1180 mL/min/kg | 52.5 µg/mL (≈ 146 µM)

Row | SMILES | MDR1-MDCK efflux ratio | fraction unbound, human plasma | fraction unbound, rat plasma | intrinsic clearance, human liver microsomes | intrinsic clearance, rat liver microsomes | aqueous solubility
41 | O=C(CNc1ccc(C(=O)N2CCCC2)cc1)N1CCCCC1 | 5.78 | – | – | ≤ 4.74 mL/min/kg | 92.7 mL/min/kg | 54.2 µg/mL (≈ 172 µM)
42 | O=C(NC1(c2ccccc2)CCC1)c1cc(C2CC2)on1 | 0.543 | – | – | 8.16 mL/min/kg | 192 mL/min/kg | 8.8 µg/mL (≈ 31.2 µM)
43 | Cc1ccc(-c2nnc(SCCn3cccn3)[nH]2)cc1 | – | – | – | 96.9 mL/min/kg | 302 mL/min/kg | 21.8 µg/mL (≈ 76.4 µM)
44 | CSc1nccc(N2Cc3cnn(Cc4ccc(F)cc4)c3C2)n1 | 0.579 | – | – | 141 mL/min/kg | 2590 mL/min/kg | –
45 | CSCc1c(C(=O)NC(C)C)oc2ccccc12 | 0.636 | – | – | 85.1 mL/min/kg | 367 mL/min/kg | 27.9 µg/mL (≈ 106 µM)
46 | Cc1nn(C)c(C)c1NC(=O)CN1CCN(c2nccs2)CC1 | 18.9 | – | – | ≤ 4.74 mL/min/kg | 14.3 mL/min/kg | 58.2 µg/mL (≈ 174 µM)
47 | COc1cc2nc(-c3cc(F)ccc3O)nc(N[C@@H]3CNC[C@H]3C(C)(C)O)c2cc1OC.Cl | – | 0.00076 | 0.0015 | – | – | –
48 | CCCn1cnnc1Cn1ccnc1-c1ccc2occc2c1 | 93.8 | – | – | ≤ 4.74 mL/min/kg | 16.6 mL/min/kg | 28.6 µg/mL (≈ 93.1 µM)
49 | CCOC(=O)C1CCN(C(=O)c2cc3occc3c(Nc3ccc(F)cc3)n2)CC1 | 1.32 | – | – | – | – | 0.88 µg/mL (≈ 2.14 µM)
50 | CC(=O)Nc1ccc(Oc2ncnc3scc(-c4ccccc4)c23)cc1 | 0.804 | – | – | 39 mL/min/kg | 438 mL/min/kg | 8.9 µg/mL (≈ 24.6 µM)
51 | COc1cccc(-c2ocnc2C(=O)Nc2ccc(-c3ccc(C)o3)cc2)c1 | – | – | – | – | – | 0.4 µg/mL (≈ 1.07 µM)
52 | Cn1cc(-c2cn3nccc3c(-c3cnn([C@]4(CC#N)C[C@@H](C#N)C4)c3)n2)cn1 | 53.3 | 0.363 | 0.231 | ≤ 4.74 mL/min/kg | ≤ 10.7 mL/min/kg | 2.2 µg/mL (≈ 5.74 µM)
53 | CC(=O)Nc1ccc(S(=O)(=O)NC2=NCN(Cc3ccccc3)CN2)cc1 | – | – | – | ≤ 4.74 mL/min/kg | ≤ 10.7 mL/min/kg | 61 µg/mL (≈ 157 µM)
54 | Cc1n[nH]c(C)c1Cc1ccc(NCCC(C)C)cc1 | 0.61 | – | – | ≤ 4.74 mL/min/kg | 484 mL/min/kg | 14.7 µg/mL (≈ 54.2 µM)
55 | Cc1ccc(NC(=O)c2cccc3cccnc23)cc1 | – | – | – | 206 mL/min/kg | 240 mL/min/kg | 5.7 µg/mL (≈ 21.7 µM)
56 | CC(C)c1nc(CCn2ccnc2-c2ccoc2)cs1 | 0.661 | – | – | 234 mL/min/kg | 2160 mL/min/kg | 29.2 µg/mL (≈ 102 µM)
57 | COc1cccc(CN(C)c2cc(N3CCCC3)ncn2)n1 | 0.683 | – | – | 128 mL/min/kg | 4460 mL/min/kg | –
58 | CC(C)c1cc(C(=O)N2Cc3ccc(CN4CCN(C)CC4)cc3C2)c(O)cc1O | 24.3 | – | – | ≤ 4.74 mL/min/kg | 50.4 mL/min/kg | 44.6 µg/mL (≈ 109 µM)
